Structures can show the parent of a compound that is named as a salt. Where two headings read alike, the source gives them in different places.
How the values were obtained:
[1] = system: S. aureus biofilm; experiment: S. aureus biofilm inhibition, optical density, test/control; assay type: cell-based, Staphylococcus aureus; conditions: Staphylococcus aureus, growth of biofilm test/control by optical density
[2] = system: S. epidermis biofilm; experiment: S. epidermis biofilm inhibition, optical density, test/control; conditions: Staphylococcus epidermidis, growth of biofilm test/control by optical density; for activity at 5 µM: read-out: S. epidermis Biofilm inhibition 5 μM vs. (−) Control, 5 μM; for activity at 50 µM: read-out: S. epidermis Biofilm inhibition 50 μM vs. (−) Control, 50 μM
[3] = system: S. aureus; experiment: S. aureus growth inhibition, optical density, test/control; assay type: cell-based, Staphylococcus aureus; conditions: Staphylococcus aureus, growth of bacteria test/control by optical density
[4] = 5 μM, read-out: S. aureus Biofilm Inhibition 5 μM vs. (−) Control
[5] = 50 μM, read-out: S. aureus Biofilm Inhibition 50 μM vs. (−) Control
[6] = read-out: S. aureus Biofilm Inhibition 5 μM vs. (−) Control, 5 μM

Structure (SMILES) | activity at 5 µM [2] [%] | activity at 100 µM [1] [%] | activity at 100 µM [3] [%] | further results
C=CCn1c(SCCOC)nc2c(c1=O)C1(CCN(C(=O)OC(C)(C)C)CC1)Cc1cc(OC)ccc1-2 [CCG-206660, tert-butyl 3-allyl-8-methoxy-2-((2-methoxyethyl)thio)-4-oxo-4,6-dihydro-3H-spiro[benzo[h]quinazoline-5,4′-piperidine]-1′-carboxylate] | 71.5 |  |  | activity at 5 µM [1, 4]: 46%; activity at 50 µM [1, 5]: 60.1%; activity at 50 µM [2]: 64.3%
COc1ccc2c(c1)CC1(CCNCC1)c1c(OC)nc(SCC#N)nc1-2 [CCG-212014, 2((4,8-dimethoxy-6H-spiro[benzo[h]quinazoline-5,4′-piperidin]-2-yl)thio)acetonitrile] | 105 |  |  | activity at 5 µM [1, 4]: 77%; activity at 50 µM [1, 5]: 52%; activity at 50 µM [2]: 63%
C=CCn1c(SCCOC)nc2c(c1=O)C1(CCN(C(=O)OC(C)(C)C)C1)Cc1ccccc1-2 (stereo not drawn) [CCG-208860, tert-butyl 3-allyl-2-((2-methoxyethyl)thio)-4-oxo-4,6-dihydro-3H-spiro[benzo[h]quinazoline-5,3′-pyrrolidine]-1′-carboxylate] | 85 |  |  | activity at 5 µM [1, 4]: 70.4%; activity at 50 µM [1, 5]: 46.4%; activity at 50 µM [2]: 79.8%
C=CCn1c(SCCOC)nc2c(c1=O)C1(CCN(Cc3ccccc3)CC1)Cc1cc(OC)ccc1-2 [CCG-208982, 3-allyl-1′-benzyl-8-methoxy-2-((2-methoxyethyl)thio)-3H-spiro[benzo[h]quinazoline-5,4′-piperidin]-4(6H)-one] | 98.7 |  |  | activity at 5 µM [1, 4]: 76.5%; activity at 50 µM [1, 5]: 31.9%; activity at 50 µM [2]: 66%
C=CCn1c(SCC)nc2c(c1=O)C1(CCNCC1)Cc1cc(OC)ccc1-2 [CCG-206664, 3-allyl-2-(ethylthio)-8-methoxy-3H-spiro[benzo[h]quinazoline-5,4′-piperidin]-4(6H)-one hydrochloride] | 87.7 |  |  | activity at 5 µM [1, 6]: 89%; activity at 50 µM ([1]; read-out: S. aureus Biofilm Inhibition 50 μM vs. (−) Control, 50 μM): 2.8%
C=CCn1c(SCC)nc2c(c1=O)C(C)(C)Cc1cc(OCCN3C(=O)c4ccccc4C3=O)ccc1-2 [CCG-206176, 2-(2-((3-allyl-2-(ethylthio)-5,5-dimethyl-4-oxo-3,4,5,6-tetrahydrobenzo[h]quinazolin-8-yl)oxy)ethyl)isoindoline-1,3-dione] |  | 79.5 | 100 | 
C=CCn1c(SCc2ccc(NC(C)=O)cc2)nc2c(c1=O)C1(CCCCC1)Cc1ccccc1-2 [CCG-102491] |  | 75 | 84.8 | 
C#CCSc1nc2c(c(=O)n1CC=C)C(C)(C)Cc1cc(C(=O)c3ccccc3)ccc1-2 [CCG-204080, 3-allyl-8-benzoyl-5,5-dimethyl-2-(prop-2-yn-1-ylthio)-5,6-dihydrobenzo[h]quinazolin-4(3H)-one] |  | 73.4 | 110 | 
C=CCn1c(SCCOC)nc2c(c1=O)C1(CCN(C(=O)c3ccccc3)CC1)Cc1ccccc1-2 [CCG-206231, 3-Allyl-1′-benzoyl-2-((2-methoxyethyl)thio)-3H-spiro[benzo[h]quinazoline-5,4′-piperidin]-4(6H)-one] |  | 53 | 111 | activity at 10 µM [1]: 52.5%
COc1ccc2c(c1)CC1(CCNCC1)c1c(OCC#N)nc(SCC#N)nc1-2 [CCG-212015, 2-((4-(cyanomethoxy)-8-methoxy-6H-spiro[benzo[h]quinazoline-5,4′-piperidin]-2-yl)thio)acetonitrile] | 93 |  |  | activity at 5 µM [1, 4]: 94%; activity at 50 µM [1, 5]: 33%; activity at 50 µM [2]: 48%
C=CCn1c(SCCO)nc2c(c1=O)C(C)(C)Cc1ccccc1-2 [CCG-203041] |  | 47.7 | 89.7 | 
COCCSc1nc2c(c(=O)n1Cc1ccc(OC)cc1)C(C)(C)Cc1ccccc1-2 [CCG-204036, 3-(4-Methoxybenzyl)-2-((2-methoxyethyl)thio)-5,5-dimethyl-5,6-dihydrobenzo[h]quin-azolin-4(3H)-one] |  | 76.5 | 112 | 
COCCSc1nc2c(c(=O)n1CC1OCCO1)C(C)(C)Cc1ccccc1-2 [CCG-204029, 3-((1,3-Dioxolan-2-yl)methyl)-2-((2-methoxyethyl)thio)-5,5-dimethyl-5,6-dihydrobenzo[h]-quinazolin-4(3H)-one] |  | 63.6 | 94.3 | 
C=CCn1c(SCC)nc2c(c1=O)C1(CCN(C(=O)OC(C)(C)C)CC1)Cc1cc(OC)ccc1-2 [CCG-206663, tert-butyl 3-allyl-2-(ethylthio)-8-methoxy-4-oxo-4,6-dihydro-3H-spiro[benzo[h]quinazoline-5,4′-piperidine]-1′-carboxylate] | 73.4 |  |  | activity at 5 µM [1, 4]: 49.9%; activity at 50 µM [2]: 76.1%
CCn1c(SCCOC)nc2c(c1=O)C(C)(C)Cc1ccccc1-2 [CCG-203598] |  | 61 | 85.5 | 
C=CCn1c(SCC)nc2c(c1=O)C(C)(C)Cc1cc(OC(C)C)ccc1-2 [CCG-205480] |  |  | 115 | activity at 10 µM [1]: 52.3%
C=CCn1c(SCCOC)nc2c(c1=O)C1(CCNCC1)Cc1cc(OC)ccc1-2 [CCG-206661, 3-allyl-8-methoxy-2-((2-methoxyethyl)thio)-3H-spiro[benzo[h]quinazoline-5,4′-piperidin]-4(6H)-one hydrochloride] | 98.7 |  |  | activity at 5 µM [1, 6]: 86.9%

Structure (SMILES) | activity at 5 µM [2] [%] | activity at 100 µM [1] [%] | activity at 100 µM [3] [%] | further results
COCCSc1nc(OCc2ccc(OC)cc2)c2c(n1)-c1ccccc1CC2(C)C [CCG-204037, 4-((4-Methoxybenzyl)oxy)-2-((2-methoxyethyl)thio)-5,5-dimethyl-5,6-dihydrobenzo[h]-quinazoline] |  | 65.7 | 110 | 
COCCSc1nc2c(c(=O)n1CC1CC1)C(C)(C)Cc1ccccc1-2 [CCG-205444, 3-(Cyclopropylmethyl)-2-((2-methoxyethyl)thio)-5,5-dimethyl-5,6-dihydrobenzo[h]quinazolin-4(3H)-one] |  | 66.2 | 104 | 
C=CCn1c(SCCOC)nc2c(c1=O)C1(CCCCC1)Cc1ccccc1-2 [CCG-102493] |  | 66 | 72.1 | 
C=CCn1c(SCC)nc2c(c1=O)C(C)(C)Cc1c(O)cccc1-2 [CCG-203631] |  | 31.1 | 76.7 | 
C=CCn1c(SC)nc2c(c1=O)C1(CCCCC1)Cc1ccccc1-2 [CCG-102620] |  | 76.5 | 95.3 | 
C=CCn1c(SCC)nc2c(c1=O)C(C)(C)Cc1cc(OCC(C)C)ccc1-2 [CCG-205426, 3-allyl-2-(ethylthio)-8-isobutoxy-5,5-dimethyl-5,6-dihydrobenzo[h]quinazolin-4(3H)-one] |  | 77.8 | 114 | 
C=CCn1c(SCCOC)nc2c(c1=O)C1(CCN(C(=O)c3ccc(Cl)cc3)CC1)Cc1ccccc1-2 [CCG-206235, 3-Allyl-1′-(4-chlorobenzoyl)-2-((2-methoxyethyl)thio)-3H-spiro[benzo[h]quinazoline-5,4′-piperidin]-4(6H)-one] |  | 77.6 | 106 | 
COCCSc1nc2c(c(=O)n1CCOc1ccc(F)cc1)C(C)(C)Cc1ccccc1-2 [CCG-204027, 3-(2-(4-Fluorophenoxy)ethyl)-2-((2-methoxyethyl)thio)-5,5-dimethyl-5,6-dihydrobenzo-[h]quinazolin-4(3H)-one] |  | 74.8 | 108 | 
C=CCn1c(SCCOC)nc2c(c1=O)C1(CCN(C(=O)Nc3ccccc3)CC1)Cc1cc(OC)ccc1-2 [CCG-211971, 3-allyl-8-methoxy-2-((2-methoxyethyl)thio)-4-oxo-N-phenyl-4,6-dihydro-3H-spiro[benzo[h]quinazoline-5,4′-piperidine]-1′-carboxamide] | 125 |  |  | activity at 50 µM [2]: 69%
C=CCn1c(SCC)nc2c(c1=O)C(C)(C)Cc1cc(OCC#N)ccc1-2 [CCG-206178] |  |  | 104 | activity at 10 µM [1]: 56.5%
C=CCn1c(SCc2cccc(OC)c2)nc2c(c1=O)C1(CCCCC1)Cc1ccccc1-2 [CCG-102485] |  | 49.5 | 114 | 
CCSc1nc(OCC(F)(F)F)c2c(n1)-c1cc(OC)ccc1CC2(C)C [CCG-206356] |  | 59.1 | 110 | 
COCCSc1nc2c(c(=O)n1Cc1ccc(-c3noc(C)n3)cc1)C(C)(C)Cc1ccccc1-2 [CCG-205387, 2-((2-Methoxyethyl)thio)-5,5-dimethyl-3-(4-(5-methyl-1,2,4-oxadiazol-3-yl)benzyl)-5,6-dihydrobenzo[h]quinazolin-4(3H)-one] |  | 72.3 | 115 | 
C=CCn1c(OCC)nc2c(c1=O)C1(CCCCC1)Cc1ccccc1-2 [CCG-102622] |  | 68.6 | 77.7 | 
C=CCn1c(SCCOC)nc2c(c1=O)C1(CCN(C(=O)NC)CC1)Cc1cc(OC)ccc1-2 [CCG-211970, 3-allyl-8-methoxy-2-((2-methoxyethyl)thio)-N-methyl-4-oxo-4,6-dihydro-3H-spiro[benzo[h]quinazoline-5,4′-piperidine]-1′-carboxamide] | 79 |  |  | activity at 5 µM [1, 4]: 69%; activity at 50 µM [1, 5]: 58%; activity at 50 µM [2]: 67%
C=CCn1c(SCCOC)nc2c(c1=O)C(C)(C)Cc1cc(C(=O)OC)ccc1-2 [CCG-205435] |  |  | 126 | activity at 10 µM [1]: 29.3%

Reference: patent US10441588B2, “Methods and compositions for treating bacterial infection” (Curators of the University of Missouri, priority 2012, dated 2019)
